The values below come from ChEMBL document CHEMBL4616664, “Antineoplastic Agents. 607. Emetine Auristatins” (2020).

Counter-ions that a name gives are not always drawn.

Holding throughout (type): functional
One assay relates to KM-20L2. The assay is described as follows: Growth inhibition of human KM20L2 cells incubated for 48 hrs by sulforhodamine B assay. The conditions noted are these: KM-20L2, 48 h.
The subject of another assay is DU-145. Nature of the assay: Growth inhibition of human DU145 cells incubated for 48 hrs by sulforhodamine B assay. As to conditions: DU-145, 48 h.
The test system of another assay is NCI-H460. The assay is described as follows: Growth inhibition of human NCI-H460 cells incubated for 48 hrs by sulforhodamine B assay. The conditions noted are these: NCI-H460, 48 h. On the technique in general: The SRB assay estimates cell density from bound dye.
A further assay concerns BXPC-3. The assay is described as follows: Growth inhibition of human BxPC3 cells incubated for 48 hrs by sulforhodamine B assay. The conditions noted are these: BXPC-3, 48 h.
A further assay relates to SF-268. Nature of the assay: Growth inhibition of human SF268 cells incubated for 48 hrs by sulforhodamine B assay. The conditions noted are these: SF-268, 48 h.
The next assay concerns MCF7. Nature of the assay: Growth inhibition of human MCF7 cells incubated for 48 hrs by sulforhodamine B assay. As to conditions: MCF7, 48 h.
In assay [1] the test system is Panel NCI-60 (60 carcinoma cell lines). Nature of the assay: Growth inhibition of human NCI60 cells.

What is called GI50 is the concentration at which growth is held to half of that of the control. In the case of `CC[C@H]1CN2CCc3cc(OC)c(OC)cc3[C@@H]2C[C@@H]1C[C@@H]1c2cc(OC)c(OC)cc2CCN1C(=O)CCN.O=C(O)C(F)(F)F.O=C(O)C(F)(F)F`, the GI50 in the assay on KM-20L2 was above 10 µg/mL; in the assay on DU-145, 10.1 µg/mL; with NCI-H460, above 10 µg/mL; in the assay on BXPC-3 it was 10.3 µg/mL; in the assay with SF-268 it was above 10 µg/mL; with MCF7, above 10 µg/mL.
In the case of `CC[C@H]1CN2CCc3cc(OC)c(OC)cc3[C@@H]2C[C@@H]1C[C@@H]1c2cc(OC)c(OC)cc2CCN1C(=O)CCNC(=O)[C@H](C)[C@@H](OC)[C@@H]1CCCN1C(=O)OC(C)(C)C`, the GI50 with KM-20L2 is above 10 µg/mL; with DU-145 it was 10 µg/mL; in the assay with NCI-H460, above 10 µg/mL; in the assay on BXPC-3 it was above 10 µg/mL; with SF-268 it was above 10 µg/mL; with MCF7 it was above 10 µg/mL.
Turning to `CC[C@H]1CN2CCc3cc(OC)c(OC)cc3[C@@H]2C[C@@H]1C[C@H]1NCCc2cc(OC)c(OC)cc21` [EMETINE HYDROCHLORIDE], the GI50 in the assay with KM-20L2 was found to be 47 nM; in the assay on DU-145, 36.1 nM; in the assay with BXPC-3 it was 56 nM; with MCF7 it was 54.2 nM.
`CC[C@H]1CN2CCc3cc(OC)c(OC)cc3[C@@H]2C[C@@H]1C[C@@H]1c2cc(OC)c(OC)cc2CCN1C(=O)[C@H](C)[C@@H](OC)[C@@H]1CCCN1`: the GI50 in the assay on KM-20L2 came to 3420 nM; in the assay with DU-145, 3420 nM; in the assay on NCI-H460 it was 5700 nM; with BXPC-3, 2390 nM; in the assay with SF-268 it was 3650 nM; in the assay on MCF7, 1600 nM.
For `CC[C@H]1CN2CCc3cc(OC)c(OC)cc3[C@@H]2C[C@@H]1C[C@@H]1c2cc(OC)c(OC)cc2CCN1C(=O)[C@H](C)[C@@H](OC)[C@@H]1CCCN1C(=O)C[C@@H](OC)[C@H]([C@@H](C)CC)N(C)C(=O)[C@@H](NC(=O)[C@H](C(C)C)N(C)C)C(C)C`, the 50% growth inhibitory concentration (GI50) stood at 35.8 nM in the assay with KM-20L2; 12.3 nM in the assay with DU-145; 198 nM in the assay on NCI-H460; 386 nM in the assay on BXPC-3; 30.2 nM in the assay with SF-268; 35.8 nM in the assay on MCF7.
For `CC[C@H]1CN2CCc3cc(OC)c(OC)cc3[C@@H]2C[C@@H]1C[C@@H]1c2cc(OC)c(OC)cc2CCN1C(=O)CCNC(=O)OC(C)(C)C`, the 50% growth inhibitory concentration (GI50) is above 10 µg/mL in the assay with KM-20L2; above 10 µg/mL in the assay on DU-145; above 10 µg/mL in the assay on NCI-H460; above 10 µg/mL in the assay with BXPC-3; above 10 µg/mL in the assay on SF-268; 10 µg/mL in the assay with MCF7.
On to `CC[C@H]1CN2CCc3cc(OC)c(OC)cc3[C@@H]2C[C@@H]1C[C@@H]1c2cc(OC)c(OC)cc2CCN1CCNC(=O)[C@H](C)[C@@H](OC)[C@@H]1CCCN1C(=O)C[C@@H](OC)[C@H]([C@@H](C)CC)N(C)C(=O)[C@@H](NC(=O)[C@H](C(C)C)N(C)C)C(C)C`, for which the concentration for 50% growth inhibition (GI50) with KM-20L2 turned out to be 362 nM; with DU-145, 181 nM; with NCI-H460, 4530 nM; in the assay on BXPC-3, 1900 nM; with SF-268, 272 nM; with MCF7, 118 nM.
Take `CC[C@H]1CN2CCc3cc(OC)c(OC)cc3[C@@H]2C[C@@H]1C[C@H]1NCCc2cc(OC)c(OC)cc21` [EMETINE]: in assay [1], the GI50 turned out to be 27 nM.
As for `CC[C@H]1CN2CCc3cc(OC)c(OC)cc3[C@@H]2C[C@@H]1C[C@@H]1c2cc(OC)c(OC)cc2CCN1C(=O)CCNC(=O)[C@H](C)[C@@H](OC)[C@@H]1CCCN1C(=O)C[C@@H](OC)[C@H]([C@@H](C)CC)N(C)C(=O)[C@@H](NC(=O)[C@H](C(C)C)N(C)C)C(C)C`, the concentration for 50% growth inhibition (GI50) was found to be 194 nM in the assay with KM-20L2; 97.2 nM in the assay on DU-145; 2830 nM in the assay with NCI-H460; 3800 nM in the assay on BXPC-3; 186 nM in the assay with SF-268; 159 nM in the assay on MCF7.
